Entries after “also recorded” stand apart in the source; their conditions may differ.
Columns and labels:
[1] = tested on: RMA-B7 target cells; assay: hTRT pDNA immunization of HLA-B7 Tg mice, 51Cr-release assay (in vivo processing); conditions: for % Responders / Responders/Total: hTRT pDNA immunized mice, responder when >10% specific lysis; for Responders/Total: E:T 60:1; for processing and CTL response after hTRT plasmid DNA immunization (in words): splenocytes restimulated in vitro with peptide
Procedure: DNA immunization. A DNA vector coding for the hTRT expressed under the control of CMV promoter was purified on plasmid Giga Kit columns under endotoxin-free conditions (Qiagen, Hilden, Germany). Anesthetized HLA-B*0702 transgenic mice were injected with 50 micro-liters of cardiotoxin into each tibialis anterior muscle 5-6 days prior DNA injection. For vaccination, 50 micro-liters of DNA (1 micro-gram/micro-liter in PBS) was injected into each pretreated muscle at day 0 and day 14. Ten days later, spleen cells of individual mice were separately restimulated in vitro with each relevant peptide (10 micrograms/ml) for 6 days. Effector CTL cells were tested in a standard 4 hr ^51Cr-release assay, using RMA-B7 cells (HLA-B*0702 transfected RMA cells) pulsed with test peptide or control peptide (CMV p65-derived R10TV restricted to HLA-B7). Specific % lysis as indicated below. In vivo immunization procedures were preformed in accordance with approved animal protocols at the University of California, San Diego or the Pasteur Institute, respectively.
(§1) CTL assays. Both murine and human CTL were detected by the ^51Cr release assay performed as previously described (14). Briefly, HLA-B7^+ antigen presenting cells (RMA-B7 or T2-B7 cells) were labeled for 1 hr with 100 micro-Ci of Na2^51CrO4 (Perkin Elmer). Washed cells (5×10^3 per well) were mixed in 96-well plates in 100 micro-liters/well with each peptide (at 10 micro-grams/ml or lower concentration) and 100 micro-liters of the CTL effector cells (at various E:T ratio) in RPMI medium. The plates were incubated for 4-5 hrs at 37° C. (5% CO2). The supernatants were harvested and counted on a Wallac 1470 Wizard Gamma counter. The percent lysis was calculated as 100 (cpmexp−cpmspont)/(cpmmax−cpmspont).
Next, we established which among the various candidate peptides was processed and presented from full-length hTRT. To this end, we immunized HLA-B7 Tg mice with hTRT plasmid DNA. […] As shown in Table IV some but not all the peptides were processed and presented in vivo. […] Based on this analysis, it appears that only three of the original seven peptides were processed and presented efficiently in vivo. […] Thus, selection using PAProC algorithm was per se unable to predict hTRT peptides that would be cleaved and become immunogenic in vivo.
HLA-B7 Tg mice were immunized with a pDNA coding for full-length hTRT under the CMV promoter. ^51Cr-release assay was performed after 6 days of in vitro restimulation with respective peptide. Mice were considered responders when >10% specific lysis was observed. Tests were run in duplicate at an E:T ratio of 60:1, using RMA-B7 target cells.

[2] = tested on: T2-B7 pulsed with peptide; assay: small scale in vitro immunization of normal donor PBMC (96 well plate), micro 51Cr-release CTL assay; assay type: cell-based, human; conditions: for CTL response (specific lysis) Donor 1 / CTL response (specific lysis) Donor 2 / CTL response (specific lysis) Donor 3 / CTL response (specific lysis) Donor 4 / CTL response (specific lysis) Donor 5 / CTL response (specific lysis) Donor 6 / CTL response (specific lysis) Donor 7 / CTL response (specific lysis) Donor 8: HLA-B7+ normal donor PBMC, day 10-11, approximate E:T 10:1; for CTL response of normal donor PBMC in micro-CTL assay (in words): eight HLA-B7+ normal donors; for Low R/Total: low responders among eight donors; for High R/Total: responders considered at >50% specific CTL lysis, eight donors
Procedure: In vitro immunization procedures. In experiments shown in Table III and FIG. 3, immunizations were performed in 96 well plates. Briefly, 2×10^5 irradiated (6000 rads) human PBMC were plated in 96 (flat) well-plate in 100 micro-liters of complete human medium (RPMI 1640 medium containing 10% heat inactivated human AB serum, 2 mM glutamine, 50 micro-grams/ml streptomycin and 50 micro-grams/ml penicillin) with 100 micro-grams/ml of peptide. 12 wells per peptide were plated per patient. Then 2×10^5 PBMC in 100 micro-liters of complete human medium were added into each well. Four days later 100 micro-liters of medium were replaced with 100 micro-liters of fresh complete human medium containing 80 IU/ml of IL-2. At day 6-7, 100 IU/ml of IL-2 were added and wells were split into two. On day 10-11 micro-cytotoxicity assay was performed. In experiments shown in FIGS. 4 and 5 human PBMC were stimulated in vitro in 24 well plate with autologous, irradiated, peptide-pulsed adherent cells in the presence of IL-2 and IL-7 as previously described (12). On day 4 to 5 after restimulation, effector CTL were tested in a standard ^51Cr-release assay.
as §1
To further assess the immunogenicity of the selected peptide candidates as well as their ability to expand precursor CD8 T cell in human PBMC, the following experiment was performed. PBMC from eight HLA-B7^+ normal donors were screened in a small scale in vitro immunization assay (96 well plate assay) to determine the level of responses against each individual peptide. As indicated the response to these peptides varied among the eight donors. […] Thus, the results of this in vitro assay narrowed the spectrum of immunogenic peptides beyond those identified in vivo in HLA-B7 Tg mice. A typical result of this type of analysis is shown in FIG. 3, which depicts the induction of CTL and their specificity in each of the twelve wells. As shown, there is considerable variability in the number of positive wells per peptide as well as in the percentage lysis which itself varied from peptide to peptide. This variation in the response to each peptide may be related to either an intrinsic characteristic of the peptide (e.g., its avidity) or a variation in the frequency of CD8 T cell precursors for that peptide among donors particularly in view of the format of the assay used.
PBMC from HLA-B7^+ normal blood donors were pulsed with the candidate peptide in 96 well plate assay (described in Material and Methods), and tested for lysis of T2-B7 pulsed with peptide on day 10-11. A micro ^51Cr-release assay was performed as described in Material and Methods. Responders were considered at >50% specific CTL lysis. CTL assays were performed at an approximate E:T ratio of 10:1. ND not done

CC(C)C[C@H](NC(=O)[C@H](C)NC(=O)[C@@H](NC(=O)[C@H](CC(C)C)NC(=O)[C@@H](NC(=O)[C@@H](NC(=O)CNC(=O)[C@@H]1CCCN1C(=O)[C@@H](N)CC(C)C)[C@@H](C)O)[C@@H](C)O)[C@@H](C)O)C(=O)O [p1107, LPGTTLTAL]
% Responders [1]: 50%
Responders/Total [1]: 3/6
processing and CTL response after hTRT plasmid DNA immunization (in words) [1]: greater CTL responses than the other peptides
CTL response (specific lysis) Donor 1 [2]: >50%
CTL response (specific lysis) Donor 2 [2]: >50%
CTL response (specific lysis) Donor 3 [2]: 0%
CTL response (specific lysis) Donor 4 [2]: >50%
CTL response (specific lysis) Donor 5 [2]: >25%
CTL response (specific lysis) Donor 6 [2]: <25%
CTL response (specific lysis) Donor 7 [2]: >25%
CTL response (specific lysis) Donor 8 [2]: 0%
CTL response of normal donor PBMC in micro-CTL assay (in words) [2]: strong responses but in fewer instances only
Low R/Total [2]: 2/8
High R/Total [2]: 3/8

CC[C@H](C)[C@H](NC(=O)[C@@H](NC(=O)[C@H](CCCCN)NC(=O)[C@H](Cc1ccccc1)NC(=O)[C@H](CC(=O)O)NC(=O)[C@H](CO)NC(=O)[C@@H]1CCCN1C(=O)[C@@H](N)CC(C)C)[C@@H](C)O)C(=O)N[C@@H](CC(C)C)C(=O)O [p1123]
% Responders [1]: 50%
Responders/Total [1]: 3/6
processing and CTL response after hTRT plasmid DNA immunization (in words) [1]: greater CTL responses than the other peptides
CTL response (specific lysis) Donor 1 [2]: >50%
CTL response (specific lysis) Donor 2 [2]: >50%
CTL response (specific lysis) Donor 3 [2]: >50%
CTL response (specific lysis) Donor 4 [2]: <25%
CTL response (specific lysis) Donor 5 [2]: >50%
CTL response (specific lysis) Donor 6 [2]: >50%
CTL response (specific lysis) Donor 7 [2]: >50%
CTL response (specific lysis) Donor 8 [2]: >50%
CTL response of normal donor PBMC in micro-CTL assay (in words) [2]: strong responses in the majority of the subjects
Low R/Total [2]: 0/8
High R/Total [2]: 7/8

CC(C)C[C@H](NC(=O)[C@H](CO)NC(=O)[C@H](CO)NC(=O)[C@H](CC(C)C)NC(=O)[C@H](CC(C)C)NC(=O)[C@H](Cc1ccccc1)NC(=O)[C@H](CO)NC(=O)[C@@H]1CCCN1C(=O)[C@@H](N)CCCNC(=N)N)C(=O)O [p342]
% Responders [1]: 29%
Responders/Total [1]: 2/7
processing and CTL response after hTRT plasmid DNA immunization (in words) [1]: marginally immunogenic if any
CTL response (specific lysis) Donor 1 [2]: >25%
CTL response (specific lysis) Donor 2 [2]: >25%
CTL response (specific lysis) Donor 3 [2]: >25%
CTL response (specific lysis) Donor 4 [2]: >50%
CTL response (specific lysis) Donor 5 [2]: 0%
CTL response (specific lysis) Donor 6 [2]: <25%
CTL response (specific lysis) Donor 7 [2]: >25%
CTL response (specific lysis) Donor 8 [2]: 0%
CTL response of normal donor PBMC in micro-CTL assay (in words) [2]: strong responses but in fewer instances only
Low R/Total [2]: 4/8
High R/Total [2]: 1/8

CC(C)C[C@H](NC(=O)[C@H](CCCNC(=N)N)NC(=O)[C@H](CCCNC(=N)N)NC(=O)[C@H](CC(C)C)NC(=O)[C@H](CS)NC(=O)[C@H](C)NC(=O)[C@H](CCCNC(=N)N)NC(=O)[C@@H](NC(=O)[C@@H](N)Cc1ccccc1)C(C)C)C(=O)O [p464]
% Responders [1]: 17%
Responders/Total [1]: 2/6
processing and CTL response after hTRT plasmid DNA immunization (in words) [1]: marginally immunogenic if any
CTL response (specific lysis) Donor 1 [2]: >50%
CTL response (specific lysis) Donor 2 [2]: >50%
CTL response (specific lysis) Donor 3 [2]: 0%
CTL response (specific lysis) Donor 4 [2]: >25%
CTL response (specific lysis) Donor 5 [2]: <25%
CTL response (specific lysis) Donor 6 [2]: <25%
CTL response (specific lysis) Donor 7 [2]: <25%
CTL response (specific lysis) Donor 8 [2]: 0%
CTL response of normal donor PBMC in micro-CTL assay (in words) [2]: strong responses but in fewer instances only
Low R/Total [2]: 1/8
High R/Total [2]: 2/8

CC(C)C[C@H](NC(=O)[C@H](CO)NC(=O)[C@@H](NC(=O)[C@H](C)NC(=O)[C@H](CCC(=O)O)NC(=O)[C@H](CCC(=O)O)NC(=O)[C@H](C)NC(=O)[C@@H]1CCCN1C(=O)[C@@H](N)CCCNC(=N)N)[C@@H](C)O)C(=O)O [p277]
% Responders [1]: 57%
Responders/Total [1]: 4/7
processing and CTL response after hTRT plasmid DNA immunization (in words) [1]: greater CTL responses than the other peptides
CTL response (specific lysis) Donor 1 [2]: >50%
CTL response (specific lysis) Donor 2 [2]: >50%
CTL response (specific lysis) Donor 3 [2]: >50%
CTL response (specific lysis) Donor 4 [2]: >50%
CTL response (specific lysis) Donor 5 [2]: >50%
CTL response (specific lysis) Donor 6 [2]: <25%
CTL response (specific lysis) Donor 7 [2]: <25%
CTL response (specific lysis) Donor 8 [2]: <25%
CTL response of normal donor PBMC in micro-CTL assay (in words) [2]: strong responses in the majority of the subjects
Low R/Total [2]: 0/8
High R/Total [2]: 5/8

CC(C)C[C@H](NC(=O)[C@H](CC(C)C)NC(=O)[C@H](CCC(N)=O)NC(=O)[C@@H](NC(=O)[C@H](CC(C)C)NC(=O)[C@H](CCCNC(=N)N)NC(=O)[C@H](CCCNC(=N)N)NC(=O)[C@@H]1CCCN1C(=O)[C@@H](N)CC(=O)O)C(C)C)C(=O)O [p444]
% Responders [1]: 0%
Responders/Total [1]: 0/4
processing and CTL response after hTRT plasmid DNA immunization (in words) [1]: apparently not processed; also recorded: marginally immunogenic if any
CTL response (specific lysis) Donor 3 [2]: <25%
CTL response (specific lysis) Donor 4 [2]: >25%
CTL response (specific lysis) Donor 5 [2]: 0%
CTL response (specific lysis) Donor 6 [2]: 0%
CTL response (specific lysis) Donor 7 [2]: 0%
CTL response (specific lysis) Donor 8 [2]: <25%
CTL response of normal donor PBMC in micro-CTL assay (in words) [2]: poorly immunogenic in vitro; also recorded: poor immunogenicity
Low R/Total [2]: 1/8
High R/Total [2]: 0/8
